Measured values published in US9187790B2, “Saccharification of lignocellulosic biomass” (priority 2012, dated 2015).
Counter-ions that a name gives are not always drawn. Like-named read-outs stand apart in the source and are kept apart here.

Tests used:
[1] = for Conversion: 1 ml H2O, 1500 mg LiBr, 100 mg spruce powder, 2 mg acid, 140° C., 30 min
[2] = Solubility in water and organic solvent; assay type: physicochemical; conditions: 60% salt in water
Description: After the extraction, any small amount of LiBr in the sugar stream can be removed by means of ion exchange resin, crystallization, precipitation with anti-solvent, and precipitation with sodium carbonate, as described in Examples herein.

[3] = Hydrolysis of biomass in concentrated solutions of different salts; conditions: for conversion/hydrolysis of polysaccharides (in words): concentration of salt 60%
Description: Hydrolysis of biomass in different metal halide solutions was investigated.

Saccharomyces cerevisiae = experiment: Glucose fermentation to ethanol in the presence of residual salt; assay type: cell-based
Description: Complete separation of LiBr from sugars is difficult and expensive. Small amounts of LiBr or CaBr2 may be retained in the sugar product stream generated by the processes of this invention. If the sugars are intended for use for fermentation, the residual salt could potentially affect the fermentation. […]

[4] = Extraction of LiBr from LiBr-glucose solution with n-butanol/hexane; assay type: physicochemical; set-up: Glucose retained/extraction steps: unit not given here; conditions: for glucose extracted into the butanol phase: butanol to hexane ratio 7/3; for Glucose retained after extraction: 200 mg glucose and 1500 mg LiBr in 1 mL water; for Glucose extracted / LiBr extracted / LiBr/sugar (separation efficiency): organic phase from the 1st extraction; for LiBr content left in the LiBr-glucose solution: butanol to hexane 7:3
Description: A LiBr-glucose solution was first used to test the butanol extraction.

[5] = Extraction of CaBr2 from CaBr2-glucose solution with n-butanol/hexane; assay type: physicochemical
Method: As mentioned above, CaBr2 can work as effectively as LiBr to hydrolyze lignocellulosic biomass. CaBr2 was extracted from glucose with the butanol extraction method as described above (A). […] More than half of the initial glucose was extracted to the solvent phase. […] Only 10 mg glucose was extracted into 5:5 butanol/hexane.

[6] = Crystallization/precipitation of glucose by ethanol; assay type: physicochemical; conditions: 400 mg glucose, 2 mL ethanol, 120° C. then cooled to room temperature
Method: Glucose was dissolved in ethanol by heating to 120° C. to facilitate dissolution. The resulting clear solution was then cooled to room temperature with stirring to allow sugar crystallization (or precipitation). Precipitated glucose was filtered and washed with ethanol. However, a small amount of glucose was found dissolved in ethanol, and therefore glucose was not fully recovered. […] The same crystallization operation was carried out as for pure glucose above. […] Almost all other sugars and LiBr were however retained in the ethanol. […] In addition, xylose may negatively affect the crystallization of glucose.

[7] = cited from earlier work
[8] = over the investigated concentrations (0 to 5% w/v)
[9] = butanol:hexane 5:5 (v/v), 15 extraction steps
[10] = butanol:hexane 6:4 (v/v), 13 extraction steps
[11] = butanol:hexane 6.5:3.5 (v/v), 12 extraction steps
[12] = butanol:hexane 7:3 (v/v), 10 extraction steps
[13] = butanol:hexane 7.5:2.5 (v/v), 9 extraction steps
[14] = butanol:hexane 8:2 (v/v), 9 extraction steps
[15] = butanol:hexane 8.5:1.5 (v/v), 8 extraction steps
[16] = butanol:hexane 9:1 (v/v), 7 extraction steps
[17] = butanol:hexane 10:0 (v/v), 6 extraction steps
[18] = salt concentration 2% (w/v), FIG. 9A

With O=[N+]([O-])O [HNO3, nitric acid] as the compound, how does the Conversion [1] read?
The Conversion was 100%.

What about the “effectiveness in catalyzing the hydrolysis of spruce (in words)” value ([1]; 60% LiBr solution) of the same compound?
The value was “as effective as hydrochloric acid”.

For CC(=O)O [CH3COOH, acetic acid], which Conversion [1] is on record?
The Conversion was 90%.

With Cl [HCl, hydrochloric acid] as the compound, how does the Conversion [1] read?
Its Conversion is 100%.

Which “temperature at which the solution starts crystallizing” value [2] does the source give for [Cl-].[Li+] [LiCl, reference compound] here?
The value was 120 °C.

What about the “conversion/hydrolysis of polysaccharides (in words)” value [3] of the same compound?
The value was “complete conversion/hydrolysis”.

Which “inhibition on sugar fermentation” value (Saccharomyces cerevisiae; [8]) does the source give for [Ca+2].[Cl-].[Cl-] [CaCl2, calcium chloride, reference compound] here?
The value was “does not appear to be inhibitory”.

What about the Conversion [3] of the same compound?
The Conversion was 70%.

Which Conversion [1] does the source give for O=P(O)(O)O [H3PO4, phosphoric acid] here?
The Conversion was 95%.

Which “glucose extracted into the butanol phase” value [4] does the source give for O=C[C@H](O)[C@@H](O)[C@H](O)[C@H](O)CO [glucose] here?
The value was “about 10%”.

What about the “glucose extracted into the butanol phase” value ([4]; out of 320 mg glucose) of the same compound?
Its value is ~30 mg.

And the Glucose retained/extraction steps [4, 9]?
The Glucose retained/extraction steps was 12.6.

And the “Glucose retained after extraction” value [4, 9]?
The value was 190 mg.

And the Glucose extracted ([4]; butanol:hexane 5:5)?
The Glucose extracted was 2 mg.

What about the Glucose retained/extraction steps [4, 10] of the same compound?
The Glucose retained/extraction steps was 14.5.

What about the “Glucose retained after extraction” value [4, 10] of the same compound?
Its value is 189 mg.

What about the Glucose extracted ([4]; butanol:hexane 6:4) of the same compound?
Its Glucose extracted is 3 mg.

What about the Glucose retained/extraction steps [4, 11] of the same compound?
Its Glucose retained/extraction steps is 16.

What about the “Glucose retained after extraction” value [4, 11] of the same compound?
Its value is 187 mg.

What about the Glucose extracted ([4]; butanol:hexane 6.5:3.5) of the same compound?
The Glucose extracted was 4 mg.

What about the Glucose retained/extraction steps [4, 12] of the same compound?
Its Glucose retained/extraction steps is 18.5.

And the “Glucose retained after extraction” value [4, 12]?
Its value is 185 mg.

What about the Glucose extracted ([4]; butanol:hexane 7:3) of the same compound?
The Glucose extracted was 4.5 mg.

And the Glucose retained/extraction steps [4, 13]?
The Glucose retained/extraction steps was 19.4.

What about the “Glucose retained after extraction” value [4, 13] of the same compound?
The value was 175 mg.

What about the Glucose extracted ([4]; butanol:hexane 7.5:2.5) of the same compound?
The Glucose extracted was 5 mg.

What about the Glucose retained/extraction steps [4, 14] of the same compound?
The Glucose retained/extraction steps was 17.8.

And the “Glucose retained after extraction” value [4, 14]?
The value was 160 mg.

What about the Glucose extracted ([4]; butanol:hexane 8:2) of the same compound?
Its Glucose extracted is 5.5 mg.

What about the Glucose retained/extraction steps [4, 15] of the same compound?
Its Glucose retained/extraction steps is 17.5.

And the “Glucose retained after extraction” value [4, 15]?
Its value is 140 mg.

What about the Glucose extracted ([4]; butanol:hexane 8.5:1.5) of the same compound?
The Glucose extracted was 7 mg.

What about the Glucose retained/extraction steps [4, 16] of the same compound?
Its Glucose retained/extraction steps is 16.5.

And the “Glucose retained after extraction” value [4, 16]?
Its value is 115 mg.

And the Glucose extracted ([4]; butanol:hexane 9:1)?
The Glucose extracted was 12 mg.

What about the Glucose retained/extraction steps [4, 17] of the same compound?
Its Glucose retained/extraction steps is 16.

What about the “Glucose retained after extraction” value [4, 17] of the same compound?
Its value is 95 mg.

What about the Glucose extracted ([4]; butanol:hexane 10:0) of the same compound?
The Glucose extracted was 20 mg.

And the “glucose extracted into butanol/hexane” value ([5]; butanol/hexane 5:5, 30 extractions)?
Its value is 10 mg.

And the “glucose left in the solution” value ([5]; butanol/hexane 5:5, 30 extractions, from 200 mg)?
The value was 190 mg.

And the “glucose left in the aqueous phase” value ([5]; butanol/hexane 7:3, 10 extractions, 1500 mg CaBr2, 1 mL water, 200 mg glucose)?
Its value is “approximately 95 mg”.

And the Precipitated glucose ([6]; Entry 0: LiBr 0 mg, water 0 μL)?
The Precipitated glucose was 400 mg.

What about the Precipitated glucose ([6]; Entry 1: LiBr 50 mg, water 30 μL) of the same compound?
Its Precipitated glucose is 330 mg.

What about the Precipitated glucose ([6]; Entry 2: LiBr 50 mg, water 50 μL) of the same compound?
The Precipitated glucose was 330 mg.

And the Precipitated glucose ([6]; Entry 3: LiBr 50 mg, water 100 μL)?
Its Precipitated glucose is 330 mg.

What about the Precipitated glucose ([6]; Entry 4: LiBr 50 mg, water 150 μL) of the same compound?
Its Precipitated glucose is 330 mg.

What about the Precipitated glucose ([6]; Entry 5: LiBr 100 mg, water 150 μL) of the same compound?
The Precipitated glucose was 320 mg.

What about the Precipitated glucose ([6]; Entry 6: LiBr 150 mg, water 150 μL) of the same compound?
Its Precipitated glucose is 300 mg.

And the Precipitated glucose ([6]; Entry 7: LiBr 200 mg, water 150 μL)?
The Precipitated glucose was 250 mg.

And the “solubility in n-butanol (in words)” value [7]?
Its value is “insoluble”.

Which “inhibition on sugar fermentation” value (Saccharomyces cerevisiae; [18]) does the source give for [Br-].[Li+] [LiBr, Lithium bromide] here?
Its value is “more inhibitory than NaCl and CaCl2”.

What about the “inhibition on sugar fermentation” value (Saccharomyces cerevisiae; salt concentration 5% (w/v)) of the same compound?
The value was “the inhibition was significant”.

And the “inhibition on sugar fermentation” value (Saccharomyces cerevisiae; salt concentration below 5% (w/v), FIG. 7)?
Its value is “did not have significant inhibition”.

And the “LiBr content left in the LiBr-glucose solution” value (from here on “LiBr content left”) ([4]; after 10 extractions, from 1500 mg)?
Its value is 250 mg.

And the “LiBr content left” value ([4]; after 20 extractions)?
The value was 50 mg.

What about the “LiBr content left” value ([4]; after 30 extractions) of the same compound?
Its value is 30 mg.

And the LiBr extracted ([4]; butanol:hexane 5:5)?
The LiBr extracted was 141 mg.

What about the “LiBr/sugar (separation efficiency)” value ([4]; butanol:hexane 5:5) of the same compound?
The value was 71.

What about the LiBr extracted ([4]; butanol:hexane 6:4) of the same compound?
Its LiBr extracted is 152 mg.

And the “LiBr/sugar (separation efficiency)” value ([4]; butanol:hexane 6:4)?
Its value is 51.

And the LiBr extracted ([4]; butanol:hexane 6.5:3.5)?
The LiBr extracted was 195 mg.

What about the “LiBr/sugar (separation efficiency)” value ([4]; butanol:hexane 6.5:3.5) of the same compound?
Its value is 49.

And the LiBr extracted ([4]; butanol:hexane 7:3)?
The LiBr extracted was 216 mg.

And the “LiBr/sugar (separation efficiency)” value ([4]; butanol:hexane 7:3)?
Its value is 48.

What about the LiBr extracted ([4]; butanol:hexane 7.5:2.5) of the same compound?
The LiBr extracted was 231 mg.

What about the “LiBr/sugar (separation efficiency)” value ([4]; butanol:hexane 7.5:2.5) of the same compound?
Its value is 46.

What about the LiBr extracted ([4]; butanol:hexane 8:2) of the same compound?
The LiBr extracted was 252 mg.

And the “LiBr/sugar (separation efficiency)” value ([4]; butanol:hexane 8:2)?
The value was 46.

And the LiBr extracted ([4]; butanol:hexane 8.5:1.5)?
Its LiBr extracted is 277 mg.

What about the “LiBr/sugar (separation efficiency)” value ([4]; butanol:hexane 8.5:1.5) of the same compound?
The value was 40.

And the LiBr extracted ([4]; butanol:hexane 9:1)?
Its LiBr extracted is 310 mg.

And the “LiBr/sugar (separation efficiency)” value ([4]; butanol:hexane 9:1)?
The value was 26.

What about the LiBr extracted ([4]; butanol:hexane 10:0) of the same compound?
Its LiBr extracted is 383 mg.

And the “LiBr/sugar (separation efficiency)” value ([4]; butanol:hexane 10:0)?
Its value is 19.

What about the Conversion [3] of the same compound?
Its Conversion is 100%.

And the “conversion/hydrolysis of polysaccharides (in words)” value [3]?
The value was “complete conversion/hydrolysis”.

Which “inhibition on sugar fermentation” value (Saccharomyces cerevisiae; salt concentration 5% (w/v)) does the source give for [Cl-].[Na+] [NaCl, reference compound] here?
The value was “showed inhibition similar to LiBr”.

Which results are given for [Br-].[Br-].[Ca+2] [CaBr2]?
ethanol yield (Saccharomyces cerevisiae; compared with LiBr, FIG. 8): higher; inhibition on sugar fermentation (Saccharomyces cerevisiae; [8]): generally less inhibitory; inhibition on sugar fermentation (Saccharomyces cerevisiae; [18]): more inhibitory than NaCl and CaCl2; inhibition on sugar fermentation (Saccharomyces cerevisiae; salt concentration 5% (w/v)): Inhibition became more significant; CaBr2 left in the solution ([5]; butanol/hexane 5:5, 30 extractions, from 1500 mg): 70 mg; conversion/hydrolysis of polysaccharides (in words) [3]: complete conversion/hydrolysis
